For the assay, the target named is T1, Angiotensin I Converting Enzyme isolated from cultured human aortic endothelial cells (Homo sapiens, UniProt P12821).
T1 construct: host or cells: human aortic endothelial cells (AoEC), lysed with CelLytic M
As to the kind of experiment: ACE activity assay, ACE isolated from cultured human aortic endothelial cells. Conditions: 200 mcg/ml (FIG. 5); read-out: inhibition of ACE1 activity. It is filed as biochemical. As to the method: ACE 1 activity: Effects of New Micronutrient composition on catalytic activity of Angiotensin I Converting Enzyme (ACE) was analyzed using recombinant catalytic ACE domain (Sigma) or ACE isolated from cultured human aortic endothelial cells (AoEC) with ACE Activity Assay Kit (Fluorometric, Sigma, Catalog Number CS0002) in accordance with manufacturer's protocol. For preparation of cell lysate ACE human AoEC (Lonza) were plated in 75 cm2 plastic flask at 6th passage and cultured with EGB-2 endothelial cell culture medium (Lonza) in 5%CO2 at 37 °C until cell forming a confluent layer. Cells were washed twice with 10 ml phosphate buffered solution (PBS) and lysated by scratching and resuspending in 5 ml CelLytic™ M solution (Sigma) after 15 min incubation at room temperature. Results are expressed as percentage of untreated controls presented as averages +/− SD from three replicates. The results on FIG. 4 show concentration dependent inhibitory effect of the micronutrient composition for blood pressure lowering on catalytic activity of Angiotensin1 converting enzyme. Changes in ACE1 activity are expressed in % compared to control. The formula applied at 3 mcg/ml inhibits ACE1 by 20% with the most pronounced inhibitory effect of 90% and 97% obtained at 50 mcg/ml and 200 mcg/ml respectively. […]

For one molecule, inhibition results are on record in patent publication US11717013B1, “Micronutrient combination to reduce blood pressure” (priority 2022, dated 2023).

The structures appear in SMILES notation.

T1 sequence (P12821 30-1306): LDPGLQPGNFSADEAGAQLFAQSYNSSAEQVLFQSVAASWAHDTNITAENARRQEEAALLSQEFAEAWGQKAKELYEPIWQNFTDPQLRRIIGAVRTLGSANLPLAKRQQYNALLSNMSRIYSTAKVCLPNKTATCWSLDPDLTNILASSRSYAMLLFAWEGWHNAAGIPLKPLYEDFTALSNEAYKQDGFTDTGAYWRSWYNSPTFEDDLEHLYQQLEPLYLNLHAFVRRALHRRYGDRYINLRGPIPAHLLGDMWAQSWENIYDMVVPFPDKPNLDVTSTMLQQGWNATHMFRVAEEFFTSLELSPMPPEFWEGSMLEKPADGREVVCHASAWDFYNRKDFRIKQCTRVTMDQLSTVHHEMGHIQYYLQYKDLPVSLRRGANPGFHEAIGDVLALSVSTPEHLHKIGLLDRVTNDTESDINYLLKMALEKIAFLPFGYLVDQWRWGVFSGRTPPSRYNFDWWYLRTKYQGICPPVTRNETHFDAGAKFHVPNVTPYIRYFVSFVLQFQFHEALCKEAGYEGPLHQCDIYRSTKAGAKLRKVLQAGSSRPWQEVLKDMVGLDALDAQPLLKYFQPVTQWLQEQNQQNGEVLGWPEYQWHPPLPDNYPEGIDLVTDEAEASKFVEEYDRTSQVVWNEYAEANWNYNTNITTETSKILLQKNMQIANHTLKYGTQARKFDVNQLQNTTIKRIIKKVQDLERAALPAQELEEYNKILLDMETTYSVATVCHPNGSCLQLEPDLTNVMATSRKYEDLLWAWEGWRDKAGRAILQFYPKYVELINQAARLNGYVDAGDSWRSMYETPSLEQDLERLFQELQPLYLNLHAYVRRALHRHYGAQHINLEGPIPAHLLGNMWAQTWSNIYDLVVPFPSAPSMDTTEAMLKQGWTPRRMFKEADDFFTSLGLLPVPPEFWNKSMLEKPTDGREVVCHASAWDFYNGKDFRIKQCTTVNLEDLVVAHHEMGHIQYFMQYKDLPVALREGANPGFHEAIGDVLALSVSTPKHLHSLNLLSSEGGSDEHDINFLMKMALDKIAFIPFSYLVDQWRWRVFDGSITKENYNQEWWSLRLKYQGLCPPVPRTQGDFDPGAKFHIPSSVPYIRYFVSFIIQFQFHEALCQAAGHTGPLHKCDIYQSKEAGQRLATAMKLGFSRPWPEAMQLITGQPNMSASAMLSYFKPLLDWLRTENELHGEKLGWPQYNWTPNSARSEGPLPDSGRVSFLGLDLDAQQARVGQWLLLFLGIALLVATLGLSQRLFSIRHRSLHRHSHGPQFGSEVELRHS

The term inhibition denotes how much of the control response was suppressed. For the molecule `NCCCC[C@H](N[C@@H](CCc1ccccc1)C(=O)O)C(=O)N1CCC[C@H]1C(=O)O` [Lisinopril], the inhibition at 200 µg/mL was determined as 16%.
